# Assay results reported in patent publication US9382204B2, “Inhibitors targeting the DNA-binding domain of human STAT3 for treatment of metastatic cancers” (Indiana University Research and Technology Corporation, priority 2013, dated 2016).
# System: STAT3
# Test: STAT3-dependent luciferase reporter assay in MDA-MB-231-STAT3 stable cells
# Assay type: cell-based, human
# Details: 20 μM; for Rel. luciferase activity (%) 1: experiment 1, relative to DMSO; for Rel. luciferase activity (%) 2: experiment 2, relative to DMSO; for Rel. luciferase activity (%) 3: experiment 3, relative to DMSO; for Rel. luciferase activity (%) Mean: mean of experiments, relative to DMSO; for inhibition of luciferase expression compared to DMSO vehicle control: significant = p value less than 0.05
# Protocol: FIG. 12. Identification of active inS3-54 analogues. (A) Effects of inS3-54 analogues on STAT3-dependent luciferase expression. MDA-MB-231 cells with stable STAT3-dependent luciferase expression were treated with DMSO control, 20 μM inSTAT3-54 or its analogues (A1-A79), followed by measurement of luciferase activity. (*p<0.05; **p<0.01; ***p<0.001).
# MDA-MB-231-STAT3 stable cell line with high level of STAT3-dependent luciferase expression was exposed to candidate compounds at 20 μM in DMSO for 48 hours based on previous studies, and luciferase activity was measured using a luciferase assay kit (Promega, USA), following manufacturer's instructions. The final DMSO concentration in this and following assays was 0.1% (vol/vol).
SMILES,Rel. luciferase activity (%) 1,Rel. luciferase activity (%) 2,Rel. luciferase activity (%) 3,Rel. luciferase activity (%) Mean,inhibition of luciferase expression compared to DMSO vehicle control
COc1ccc(C=C2C=C(c3ccccc3)N(c3ccccc3Cl)C2=O)cc1 [Compound A57],59.5%,97.9%,51.5%,69.6%,–
CC(=O)Nc1ccc(N2C(=O)C(=Cc3ccc([N+](=O)[O-])cc3)C=C2c2ccccc2)cc1 [Compound A47],106.8%,108.8%,43.3%,86.3%,–
COC(=O)c1cccc(N2C(=O)C(=Cc3ccc([N+](=O)[O-])cc3)C=C2c2ccccc2)c1 [Compound A34],61.1%,103.6%,80.8%,81.9%,–
Cc1ccc(N2C(=O)C(=Cc3ccc(-c4ccc([N+](=O)[O-])cc4)o3)C=C2c2ccccc2)cc1C [Compound A5],113.5%,109.3%,92.2%,105.0%,–
O=C(O)c1cc(N2C(=O)C(=Cc3ccc([N+](=O)[O-])cc3)C=C2c2ccccc2)ccc1O [Compound A70],99.0%,97.9%,92.8%,96.5%,–
CC(=O)c1cccc(N2C(=O)C(=Cc3ccc(-c4ccc([N+](=O)[O-])cc4)o3)C=C2c2ccccc2)c1 [Compound A8],71.9%,102.6%,57.5%,77.3%,–
COc1ccc(C=C2C=C(c3ccccc3)N(c3cccc(Cl)c3Cl)C2=O)cc1 [Compound A58],78.9%,81.8%,36.8%,65.8%,–
COc1cccc(N2C(=O)C(=Cc3ccc(-c4ccc([N+](=O)[O-])cc4)o3)C=C2c2ccccc2)c1 [Compound A12],34.2%,105.8%,55.4%,65.1%,–
Cc1ccc(N2C(=O)C(=Cc3ccc(-c4ccc([N+](=O)[O-])cc4)o3)C=C2c2ccccc2)cc1 [Compound A4],117.8%,108.4%,103.4%,109.9%,–
O=C1C(=Cc2ccc(Cl)cc2)C=C(c2ccccc2)N1c1ccc(F)cc1 [Compound A22],97.9%,114.0%,61.1%,91.0%,–
CC(=O)c1cccc(N2C(=O)C(=Cc3ccc(Cl)cc3)C=C2c2ccccc2)c1 [Compound A65],86.6%,103.9%,91.2%,93.9%,–
O=C(O)c1ccc(N2C(=O)C(=Cc3ccc(-c4ccc(Cl)c(Cl)c4)o3)C=C2c2ccccc2)cc1 [Compound A61],57.8%,107.0%,40.8%,68.5%,–
O=C1C(=Cc2ccc([N+](=O)[O-])cc2)C=C(c2ccccc2)N1c1ccc(Cl)c(Cl)c1 [Compound A48],87.5%,108.6%,42.5%,79.5%,–
O=C1C(=Cc2ccc(Cl)cc2)C=C(c2ccccc2)N1c1ccccc1Cl [Compound A27],48.5%,83.6%,74.2%,68.8%,significantly inhibited
O=C1C(=Cc2ccc([N+](=O)[O-])cc2)C=C(c2ccccc2)N1c1ccc(Cl)c(Cl)c1 [Compound A39],119.6%,129.6%,65.9%,105.1%,–
CCOC(=O)c1ccc(N2C(=O)C(=Cc3ccc(Cl)cc3)C=C2c2ccccc2)cc1 [Compound A74],65.9%,105.7%,74.5%,82.0%,–
Cc1ccc(N2C(=O)C(=Cc3ccc([N+](=O)[O-])cc3)C=C2c2ccccc2)cc1C [Compound A30],89.6%,83.9%,61.2%,78.2%,–
O=C1C(=Cc2ccc([N+](=O)[O-])cc2)C=C(c2ccccc2)N1c1ccc(-c2ccccc2)cc1 [Compound A35],51.3%,109.5%,112.6%,91.1%,–
COc1ccccc1N1C(=O)C(=Cc2ccc([N+](=O)[O-])cc2)C=C1c1ccccc1 [Compound A32],58.2%,99.2%,58.6%,72.0%,–
O=C1C(=Cc2ccc(Cl)cc2)C=C(c2ccccc2)N1c1ccc(Cl)cc1 [Compound A16],55.8%,91.2%,57.1%,68.0%,–
COC(=O)c1ccc(N2C(=O)C(=Cc3ccc(OC)cc3)C=C2c2ccccc2)cc1 [Compound A54],77.8%,100.8%,41.7%,73.5%,–
COc1ccc(C=C2C=C(c3ccccc3)N(c3ccccc3O)C2=O)cc1 [Compound A73],72.9%,97.8%,103.4%,91.3%,–
COC(=O)c1ccc(N2C(=O)C(=Cc3ccc([N+](=O)[O-])cc3)C=C2c2ccccc2)cc1 [Compound A43],98.6%,100.4%,66.9%,88.6%,–
O=C1C(=Cc2ccc(-c3ccc([N+](=O)[O-])cc3)o2)C=C(c2ccccc2)N1c1ccc(Cl)cc1 [Compound A6],110.9%,112.7%,71.0%,98.2%,–
Cc1ccccc1N1C(=O)C(=Cc2ccc(-c3ccc([N+](=O)[O-])cc3)o2)C=C1c1ccccc1 [Compound A9],78.4%,95.8%,96.2%,90.2%,–
COc1ccccc1N1C(=O)C(=Cc2ccc(Cl)cc2)C=C1c1ccccc1 [Compound A75],28.7%,71.4%,45.4%,48.5%,significantly inhibited
O=C1C(=Cc2ccc(-c3ccc([N+](=O)[O-])cc3)o2)C=C(c2ccccc2)N1c1ccc(F)cc1 [Compound A11],73.5%,101.5%,91.7%,88.9%,–
O=C1C(=Cc2ccc(-c3ccc([N+](=O)[O-])cc3)o2)C=C(c2ccccc2)N1c1cccc(Cl)c1 [Compound A10],87.4%,110.4%,103.7%,100.5%,–
